Reference: patent US20200131196A1 (Mount Tam Therapeutics, Inc., priority 2017, published 2020)
Where “and” joins values, the source holds several entries; their conditions need not be identical. Equal entries are not always repeated. Where two headings read alike, the source gives them in different places.

Experiments:
[1] = Pharmacokinetics in male Sprague Dawley rats (intravenous and oral); assay type: in vivo, rat; conditions: for bioavailability: male, Sprague Dawley, po, 10 mg/kg; for AUC: read-out: AUC 0-infinity_observed
Method: Table 6 provides the pharmacokinetic parameters of Example (I) in male Sprague Dawley rats after a single bolus intravenous dose of 2 mg/kg. Table 7 provides the pharmacokinetic parameters of Example I in male Sprague Dawley rats after a single bolus oral dose of 10 mg/kg. In order to measure bioavailability in vivo, a compound may be administered to a test animal (e.g. mouse or rat) both intraperitoneally (i.p.) or intravenously (i.v.) and orally (p.o.) and blood samples are taken at regular intervals to examine how the plasma concentration of the drug varies over time. The time course of plasma concentration over time can be used to calculate the absolute bioavailability of the compound as a percentage using standard models. An example of a typical protocol is described below. […] The time-course of plasma or whole blood concentrations can then be used to derive key parameters such as the area under the plasma or blood concentration-time curve (AUC-which is directly proportional to the total amount of unchanged drug that reaches the systemic circulation), the maximum (peak) plasma or blood drug concentration, the time at which maximum plasma or blood drug concentration occurs (peak time), additional factors which are used in the accurate determination of bioavailability include: the compound's terminal half-life, total body clearance, steady-state volume of distribution and F %. These parameters are then analyzed by non-compartmental or compartmental methods to give a calculated percentage bioavailability, for an example of this type of method see Gallant-[…] et al, 2000 and […] et al, 1998, and references therein.

TORC2 = molecular target: T1, TORC2 (Homo sapiens, UniProt P42345+P62942); test: TORC2 inhibition in PC3 cells (Western blot, phospho Akt (S473)); assay type: cell-based
T1 construct: endogenous in cells; host or cells: PC3 cells
T1 sequence (P62942 2-108 limits assumed, other chains not shown): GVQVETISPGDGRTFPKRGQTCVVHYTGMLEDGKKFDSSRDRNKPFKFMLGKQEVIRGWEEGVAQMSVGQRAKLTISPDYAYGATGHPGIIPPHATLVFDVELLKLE
Method: Equal amounts of protein were resolved by SDS-PAGE and transferred to nitrocellulose membrane using the Invitrogen Nu-Page system. […] The following day, blots were washed 3 times in TBST, incubated for 2 hr with secondary antibodies (donkey anti rabbit hrp conjugated), and finally washed an additional 3 times in TBST. ECL Prime (Amersham) was used to detect the proteins of interest and ImageJ was used to quantify blots.

SK-UT-1 = test: OncoPanel cell proliferation assay, SK-UT-1
Method: Cells were seeded into 384-well plates and incubated in a humidified atmosphere of 5% CO2 at 37° C. Compounds were added the day following cell seeding. At the same time, a time zero untreated cell plate was generated. After a 3-day incubation period, cells were fixed and stained to allow fluorescence imaging of nuclei. Compounds (1 mM stock solutions) were serially diluted in half-log steps from the highest test concentration (1 micromol), and assayed over 10 concentrations with a maximum assay concentration of 0.1% DMSO. Automated fluorescence microscopy was carried out using a Molecular Devices ImageXpress Micro XL high-content imager, and images were collected with a 4× objective. 16-bit TIFF images were acquired and analyzed with MetaXpress 5.1.0.41 software.
Cell proliferation was measured by the fluorescence intensity of an incorporated nuclear dye. The output is referred to as the relative cell count, where the measured nuclear intensity is transformed to percent of control (POC) using the following formula:
Cellular response parameters were calculated using nonlinear regression to a sigmoidal single-site dose response model:
GI50 is the concentration needed to reduce the observed growth by half (midway between the curve maximum and the time zero value). […] In rare instances, values <0 or >10 may be observed. […] Curve-fitting, calculations, and report generation was performed using a custom data reduction engine and MathIQ based software (AIM).

[2] = Whole blood concentrations in mice after IP dosing (LC-MS/MS); assay type: in vivo, mouse; conditions: 2 mg/kg IP QD × 3 days; for Formula II Concentrations in Mouse Whole Blood, individual animals: animals 7, 8, 9
Method: Shown below are whole blood concentrations following administration of the compound of Formula II to mice. The compound of Formula II was administered to mice at 2 mg/kg or 10 mg/kg and the concentration of the compound in whole blood determined. These determinations were made using protein precipitation, liquid chromatography (LC), and mass spectrometry (MS/MS). Ten μl aliquots of whole blood and matrix calibration standards were distributed in a 96-well plate; 10 μl aliquots of blank matrix for matrix blanks and control blanks were included as controls. Ten μl of water was added to each sample followed by vortexing. One hundred sixty […] of internal standard was added to each sample except the matrix blanks; 160 μl 70:30 water:acetonitrile (ACN) was added to matrix blanks. This was followed by a […]. One hundred fifty μl of the resultant supernatant was then transferred to a new 96-well plate and the samples blown to dryness at 35° C. The resultant product was then reconstituted with 90 μl ACN.

[3] = male Sprague Dawley rats, single bolus intravenous dose of 2 mg/kg
[4] = male Sprague Dawley rats, single bolus oral dose of 10 mg/kg
[5] = rat, blood, male Sprague Dawley rats, single bolus intravenous dose of 2 mg/kg
[6] = rat, blood, male Sprague Dawley rats, single bolus oral dose of 10 mg/kg

In the case of `CO[C@H]1C[C@@H]2CC[C@@H](C)[C@@](O)(O2)C(=O)C(=O)N2CCCC[C@H]2C(=O)O[C@H]([C@H](C)C[C@H]2C[C@H]3C[C@@H]2C[C@@H]3O)CC(=O)[C@H](C)/C=C(\C)[C@@H](O)[C@@H](OC)C(=O)[C@H](C)C[C@H](C)/C=C/C=C/C=C/1C` [Formula II, C37-[(1R,2S,4R,5S)-5-hyhroxybicyclo[2.2.1]heptane] rapamycin], the “AUMC 0-inf_observed” value [1, 3] is reported as 2358 ng/ml*h^2, the Cl_obs [1, 3] is reported as 0.0026 (mg/kg)/(ng/ml)/h and the Lambda_z [1, 3] is reported as 0.270 h⁻¹. For the same compound, the Vss_obs [1, 3] was 0.00797 (mg/kg)/(ng/ml), the Vz_obs [1, 3] was 0.00963 (mg/kg)/(ng/ml) and the “AUMC 0-inf_obs” value [1, 4] was 13410 ng/ml*h^2. For the same compound, the Cl/F_obs [1, 4] was 0.0055 (mg/kg)/(ng/ml)/h, the Lambda_z [1, 4] was 0.127 h⁻¹ and the Tlag [1, 4] was 0 h. The Vz/F_obs [1, 4] was 0.0433 (mg/kg)/(ng/ml), the bioavailability ([1]; rat, blood, male Sprague Dawley rats, single bolus oral dose of 10 mg/kg, read-out: % F) was 47% and the bioavailability ([1]; rat, blood, read-out: oral bioavailability) was ~47%. The AUC(0-t) [1, 5] was 694 ng·h/mL, the C0 [1, 5] was 1560 ng/mL and the half-life [1, 5] was 2.57 h. It also gave an AUC [1, 5] of 769 ng·h/mL, a Cmax ([1]; rat, blood, male Sprague Dawley rats, single bolus intravenous dose of 2 mg/kg, read-out: Cmax (maximum blood concentration)) of 912 ng/mL and an MRT ([1]; rat, blood, male Sprague Dawley rats, single bolus intravenous dose of 2 mg/kg, read-out: MRT 0-infinity_observed) of 3.06 h. For the same compound, the Tmax ([1]; rat, blood, male Sprague Dawley rats, single bolus intravenous dose of 2 mg/kg, read-out: Tmax (time maximum blood conc.)) was 0.0333 h, the AUC(0-t) [1, 6] was 1720 ng·h/mL and the half-life [1, 6] was 5.46 h. For the same compound, the AUC [1, 6] was 1820 ng·h/mL, the Cmax ([1]; rat, blood, male Sprague Dawley rats, single bolus oral dose of 10 mg/kg, read-out: Cmax) was 206 ng/mL and the MRT inf ([1]; rat, blood, male Sprague Dawley rats, single bolus oral dose of 10 mg/kg, read-out: MRT 0-inf_obs) was 7.37 h. The Tmax ([1]; rat, blood, male Sprague Dawley rats, single bolus oral dose of 10 mg/kg, read-out: Tmax) was 2 h, the IC50 (TORC2) was 5 nM and the EC50 (SK-UT-1; Homo sapiens, SK-UT-1, read-out: Cell Count EC50) was 1.51 nM. The GI50 (SK-UT-1; Homo sapiens, SK-UT-1, read-out: Cell Count GI50) was 11.3 nM, the IC50 (SK-UT-1; Homo sapiens, SK-UT-1, read-out: Cell Count IC50) was 38.2 nM and the “Cell Count Activity Area” value (SK-UT-1; SK-UT-1) was 3.48. The “Relative cell count (%) Mean” value (SK-UT-1; SK-UT-1, 1.00E+00 microM) was 47.0%, the “Relative cell count (%) Mean” value (SK-UT-1; SK-UT-1, 1.00E-01 microM) was 59.0% and the “Relative cell count (%) Mean” value (SK-UT-1; SK-UT-1, 1.00E-02 microM) was 76.1%. For the same compound, the “Relative cell count (%) Mean” value (SK-UT-1; SK-UT-1, 1.00E-03 microM) was 82.8%, the “Relative cell count (%) Mean” value (SK-UT-1; SK-UT-1, 1.01E-04 microM) was 114.4% and the “Relative cell count (%) Mean” value (SK-UT-1; SK-UT-1, 3.16E-01 microM) was 53.3%. For the same compound, the “Relative cell count (%) Mean” value (SK-UT-1; SK-UT-1, 3.17E-02 microM) was 61.4%, the “Relative cell count (%) Mean” value (SK-UT-1; SK-UT-1, 3.17E-03 microM) was 75.4% and the “Relative cell count (%) Mean” value (SK-UT-1; SK-UT-1, 3.18E-04 microM) was 96.2%. For the same compound, the “Relative cell count (%) Mean” value (SK-UT-1; SK-UT-1, 3.18E-05 microM) was 116.9%, the “Formula II Concentrations in Mouse Whole Blood, Mean” value (shortened to “Formula II Concentrations … Mean”) ([2]; Day 1, 1.00 hrs) was 383 ng/mL and the “Formula II Concentrations in Mouse Whole Blood, individual animals” value (“Formula II Concentrations … individual animals” below) ([2]; Day 1, 1.00 hrs) was 452 ng/mL and 380 ng/mL and 317 ng/mL. The “Formula II Concentrations … Mean” value ([2]; Day 1, 2.00 hrs) was 403 ng/mL, the “Formula II Concentrations … individual animals” value ([2]; Day 1, 2.00 hrs) was 415 ng/mL (2×) and 378 ng/mL and the “Formula II Concentrations … Mean” value ([2]; Day 1, 6.00 hrs) was 464 ng/mL. For the same compound, the “Formula II Concentrations … individual animals” value ([2]; Day 1, 6.00 hrs) was 382 ng/mL and 520 ng/mL and 490 ng/mL, the “Formula II Concentrations … individual animals” value ([2]; Day 1, 24.0 hrs) was 18.4 ng/mL and 14.7 ng/mL and the “Formula II Concentrations … individual animals” value ([2]; Day 2, 1.00 hrs) was 481 ng/mL and 208 ng/mL and 524 ng/mL. The “Formula II Concentrations … individual animals” value ([2]; Day 2, 2.00 hrs) was 501 ng/mL and 233 ng/mL and 570 ng/mL, the “Formula II Concentrations … individual animals” value ([2]; Day 2, 6.00 hrs) was 632 ng/mL and 552 ng/mL and the “Formula II Concentrations … individual animals” value ([2]; Day 2, 24.0 hrs) was 15.3 ng/mL and 80.6 ng/mL and 35.2 ng/mL. For the same compound, the “Formula II Concentrations … Mean” value ([2]; Day 3, 1.00 hrs) was 651 ng/mL, the “Formula II Concentrations … individual animals” value ([2]; Day 3, 1.00 hrs) was 726 ng/mL and 600 ng/mL and the “Formula II Concentrations … Mean” value ([2]; Day 3, 2.00 hrs) was 501 ng/mL. The “Formula II Concentrations … individual animals” value ([2]; Day 3, 2.00 hrs) was 478 ng/mL and 489 ng/mL and 535 ng/mL.
